Here are results for twelve molecules from BindingDB's records for doi:10.1021/jm00058a012 (University of Arizona, 1993).

Bridge positions count the residues as written; N and C are the ends. Square brackets hold non-standard residues; d marks the D form. Peptide text beside a SMILES is read from it. Pen = CC(C)(S)[C@H](N)C(=O)O

A short description of the first test: Inhibition of [3H]DPDPE binding to delta opioid receptor of guinea pig brain homogenate.
`CC[C@H](C)[C@@H]1NC(=O)[C@H](CCCNC(=N)N)NC(=O)[C@H](CCCNC(=N)N)NC(=O)[C@@H](NC(=O)[C@H](Cc2ccccc2)NC(=O)CNC(=O)CNC(=O)[C@@H](N)Cc2ccc(O)cc2)CSSC[C@@H](C(N)=O)NC(=O)[C@H](CC(C)C)NC(=O)[C@H](CCCCN)NC(=O)[C@H]2CCCN2C(=O)[C@H](CCCNC(=N)N)NC1=O` [Tyr-Gly-Gly-Phe-c(Cys-Arg-Arg-Ile-Arg-(D-Pro)-Lys-Leu-Cys)] registered an IC50 of 9.6 nM.
Take `CC[C@H](C)[C@@H]1NC(=O)[C@H](CCCN=C(N)N)NC(=O)[C@H](CCCN=C(N)N)NC(=O)[C@@H](NC(=O)[C@@H]2Cc3ccccc3CN2C(=O)CNC(=O)CNC(=O)[C@@H](N)Cc2ccc(O)cc2)CSSC[C@@H](C(=O)O)NC(=O)[C@@H]2CCCN2C(=O)[C@H](CCCN=C(N)N)NC1=O` [Tyr-Gly-Gly-(L-Tic)-c(Cys-Arg-Arg-Ile-Arg-Pro-Cys)]: the IC50 is 181 nM.
`CC(C)C[C@H](NC(=O)[C@H](Cc1ccccc1)NC(=O)CNC(=O)CNC(=O)[C@@H](N)Cc1ccc(O)cc1)C(=O)N[C@@H](CCCNC(=N)N)C(=O)N[C@@H](CCCNC(=N)N)C(=O)N[C@@H]1CSSC[C@H](C(=O)N[C@@H](CCCCN)C(N)=O)NC(=O)[C@H](CCCCN)NC(=O)[C@@H]2CCCN2C(=O)[C@H](CCCNC(=N)N)NC1=O` [Tyr-Gly-Gly-Phe-Leu-Arg-Arg-c((D-Cys)-Arg-Pro-Lys-(D-Cys))-Lys] gave an IC50 of 6.5 nM.
On the same count and under the same terms, for `CC[C@H](C)[C@H](NC(=O)[C@H](CCCN=C(N)N)NC(=O)[C@H](CCCN=C(N)N)NC(=O)[C@H](CC(C)C)NC(=O)[C@H](Cc1ccccc1)NC(=O)CNC(=O)CNC(=O)[C@@H](N)Cc1ccc(O)cc1)C(=O)N[C@@H](CCCN=C(N)N)C(=O)N1CCC[C@H]1C(=O)N[C@@H](CCCCN)C(=O)N[C@@H](CC(C)C)C(=O)N[C@@H](CCCCN)C(=O)O` [Dynorphin A (1-13)] the value was 4.1 nM.
The molecule `CC[C@H](C)[C@@H]1NC(=O)[C@H](CCCN=C(N)N)NC(=O)[C@H](CCCN=C(N)N)NC(=O)[C@@H](NC(=O)[C@H](Cc2ccccc2)NC(=O)CNC(=O)CNC(=O)[C@@H](N)Cc2ccc(O)cc2)C(C)(C)SSC[C@@H](C(N)=O)NC(=O)[C@@H]2CCCN2C(=O)[C@H](CCCN=C(N)N)NC1=O` [Tyr-Gly-Gly-Phe-c((L-Pen)-Arg-Arg-Ile-Arg-Pro-Cys)] (H-YGGF[Pen]RRIRPC-NH2; disulfide 5-11) returned an IC50 of 86 nM.
On to `CC[C@H](C)[C@@H]1NC(=O)[C@H](CCCNC(=N)N)NC(=O)[C@H](CCCNC(=N)N)NC(=O)[C@@H](NC(=O)[C@H](Cc2ccccc2)NC(=O)CNC(=O)CNC(=O)[C@@H](N)Cc2ccccc2)CSSC[C@@H](C(N)=O)NC(=O)[C@@H]2CCCN2C(=O)[C@H](CCCNC(=N)N)NC1=O` [Phe-Gly-Gly-Phe-c(Cys-Arg-Arg-Ile-Arg-Pro-Cys)] (H-FGGFCRRIRPC-NH2; disulfide 5-11), for which the IC50 came to 389 nM.
Still for that read-out and setting: for `CC[C@H](C)[C@@H]1NC(=O)[C@H](CCCN=C(N)N)NC(=O)[C@H](CCCN=C(N)N)NC(=O)[C@@H](NC(=O)[C@H](Cc2ccccc2)NC(=O)CNC(=O)[C@@H](C)NC(=O)[C@@H](N)Cc2ccc(O)cc2)CSSC[C@@H](C(N)=O)NC(=O)[C@@H]2CCCN2C(=O)[C@H](CCCN=C(N)N)NC1=O` [Tyr-(D-ala)-Gly-Phe-c(Cys-Arg-Arg-Ile-Arg-Pro-Cys)] the value was 107 nM; for `CC[C@H](C)[C@@H]1NC(=O)[C@H](CCCN=C(N)N)NC(=O)[C@H](CCCN=C(N)N)NC(=O)[C@@H](NC(=O)[C@H](Cc2ccccc2)NC(=O)CNC(=O)CNC(=O)[C@@H](N)Cc2ccc(O)cc2)CSSC[C@@H](C(=O)N[C@@H](CCCCN)C(N)=O)NC(=O)[C@H](CCCN=C(N)N)NC1=O` [Tyr-Gly-Gly-Phe-c(Cys-Arg-Arg-Ile-Arg-Cys)-lys] (H-YGGFCRRIRCK-NH2; disulfide 5-10), 83 nM.
The molecule `CC[C@H](C)[C@@H]1NC(=O)[C@H](CCCNC(=N)N)NC(=O)[C@@H](NC(=O)[C@H](CC(C)C)NC(=O)[C@H](Cc2ccccc2)NC(=O)CNC(=O)CNC(=O)[C@@H](N)Cc2ccc(O)cc2)CSSC[C@@H](C(=O)N[C@@H](CCCCN)C(N)=O)NC(=O)[C@H](CCCNC(=N)N)NC1=O` [Tyr-Gly-Gly-Phe-leu-c(Cys-Arg-Ile-Arg-Cys)-lys] (H-YGGFLCRIRCK-NH2; disulfide 6-10) had an IC50 of 0.475 nM.
The molecule `CC[C@H](C)[C@@H]1NC(=O)[C@H](CCCN=C(N)N)NC(=O)[C@H](CCCN=C(N)N)NC(=O)[C@@H](NC(=O)[C@H](Cc2ccccc2)NC(=O)CNC(=O)CNC(=O)[C@@H](N)Cc2ccc(O)cc2)CSSC[C@@H](C(=O)N2CCC[C@H]2C(=O)N[C@@H](CCCCN)C(N)=O)NC1=O` [Tyr-Gly-Gly-Phe-c(Cys-Arg-Arg-Ile-Cys)-Pro-lys] (H-YGGFCRRICPK-NH2; disulfide 5-9) showed a 50% inhibitory concentration (IC50) of 31 nM.
In turn, `CC(C)C[C@H](NC(=O)[C@H](Cc1ccccc1)NC(=O)CNC(=O)CNC(=O)[C@@H](N)Cc1ccc(O)cc1)C(=O)N[C@@H](CCCN=C(N)N)C(=O)N[C@@H](CCCN=C(N)N)C(=O)N[C@H]1CSSC[C@H](C(N)=O)NC(=O)[C@H](CC(C)C)NC(=O)[C@H](CCCCN)NC(=O)[C@@H]2CCCN2C(=O)[C@H](CCCN=C(N)N)NC1=O` [Tyr-Gly-Gly-Phe-Leu-Arg-Arg-c(Cys-Arg-Pro-Lys-Leu-Cys)] returned an IC50 of 1.9 nM.

Assay in another test: as above
This is another data set of the same source.
For the molecule `CC[C@H](C)[C@@H]1NC(=O)[C@H](CCCN=C(N)N)NC(=O)[C@H](CCCN=C(N)N)NC(=O)[C@@H](NC(=O)[C@H](Cc2ccccc2)NC(=O)CNC(=O)CNC(=O)[C@@H](N)Cc2ccc(O)cc2)CSSC[C@@H](C(=O)N[C@@H](CCCN=C(N)N)C(=O)N[C@@H](CCCCN)C(N)=O)NC1=O` [Tyr-Gly-Gly-Phe-c(Cys-Arg-Arg-Ile-Cys)-Arg-lys] (H-YGGFCRRICRK-NH2; disulfide 5-9), the IC50 worked out at 18 nM.
